# Patent US7402559B2, “Composition and method of treatment for urogenital conditions” (MSH Pharma, Incorporated, priority 1999, dated 2008)
# Experiments:
# [1] = relative to L-form tripeptide alpha-MSH (11-13); cited from earlier work
# C. albicans [2] = experiment: C. albicans colony formation (CFU viability); type: cell-based, Candida albicans; settings: for ability of C albicans to form colonies: FIG. 3, 10^−12 to 10^−4 M, p<0.01 vs. control; for effectiveness against C. albicans compared with fluconazole / C. albicans viability: FIG. 4; for effectiveness against C. albicans compared with fluconazole: 10^−6 to 10^−4 M, same molar concentration as fluconazole
# Procedure: Clinical isolates of C. albicans were obtained from the collection of the Department of Microbiology, Ospedale Maggiore di Milano. Cultures of C. albicans were maintained on Sabouraud's agar slants and periodically transferred to Sabouraud's agar plates and incubated for 48 hours at 28° C. To prepare stationary growth-phase yeast, a colony was taken from the agar plate, transferred into 30 ml of Sabouraud-dextrose broth, and incubated for 72 hours at 32° C. Cells were centrifuged at 1000× g for ten minutes, and the pellet was washed twice with distilled water. Cells were counted and suspended in Hank's balanced salt solution (“HBSS”) to the desired concentration.
# Cells were then washed in cold distilled water and diluted with HBSS to a concentration of 100 organisms/ml. One-milliliter aliquots were then dispensed on blood agar plates and incubated for 48 hours at 37° C. The organism's viability was estimated from the number of colonies formed.
# […] The effects of forskolin and ddAdo on the ability of C. albicans to form colonies were determined according to the procedures described in Example II.
# [3] = relative to parent peptide or to the 11-13 sequence; cited from earlier work
# NF-κB = test system: NF-κB
# Procedure: Cells were washed once with cold PBS, and twice with buffer A (10 mM Hepes pH 7.9, 1.5 mM MgCl2, 10 mM KCl, 0.5 mM PMSF and 0.5 mM DTT), centrifuged, and incubated for ten minutes on ice in buffer A plus 0.1% NP-40. Afterwards, the supernatants were removed, and the nuclear pellets were resuspended in 15 μl of buffer C (20 mM Hepes pH 7.9, 1.5 mM MgCl2, 0.42 M KCl, 0.2 mM EDTA, 25% glycerol, 0.5 mM PMSF, and 0.5 mM DTT), incubated for 15 minutes on ice, mixed, and then centrifuged. The supernatants were diluted with 75 μl of modified buffer D (20 mM Hepes, pH 7.9, 0.05 mM KCl, 0.2 mM EDTA, 20% glycerol, 0.5 mM PMSF, and 0.5 mM DTT) and stored at −80° C. […] Each oligonucleotide was annealed to its complementary strand and end-labeled with ^32P-γ-ATP using polynucleotide kinase. For the determination of specific bands, nuclear extracts were first incubated with 100 fold excess unlabeled probe for five minutes, before incubation with a labeled probe. […] The gels were dried and autoradiographed.
# C. albicans [4] = experiment: cAMP content in permeabilized C. albicans (enzyme immunoassay); type: cell-based, Candida albicans; settings: FIG. 7; 10^−6 M, three minutes
# Procedure: The reactions were stopped after three minutes by the addition of ice cold ethanol. cAMP levels were measured in duplicate using a commercial enzyme immunoassay kit (Amersham, United Kingdom) after extraction via the liquid-phase method according to the manufacturer's instructions.
# C. albicans [5] = experiment: Neutrophil killing of C. albicans; type: cell-based, human neutrophils; Candida albicans; settings: FIG. 6; 10^−12 to 10^−4 M; p<0.01
# Procedure: Venous blood (20 ml) from healthy volunteers was anticoagulated with heparin. Neutrophils were then isolated using dextran sedimentation and centrifugation with Ficoll-Hypaque (Sigma Chemical Co., St. Louis, Mo., USA). Erythrocytes were lysed via hypotonic shock with the resulting neutrophils representing at least 97% of the cell suspension. Cell viability, estimated by trypan blue exclusion, was greater than 98%. Neutrophils were resuspended in HBSS for the experiments. […] After incubation, the culture tubes were placed on ice to stop growth, and extracellular organisms were washed twice with centrifugation at 1000-× g at 4° C. A 2.5% sodium deoxycholate solution was added to the suspension, and the tubes were shaken for five minutes. Cold distilled water was then added to obtain a suspension of 10^6 cells/ml. Two 1/100 serial dilutions in HBSS were made to obtain a final suspension of 100 cells/ml. One-milliliter aliquots were then dispensed on blood agar plates and incubated for 48 hours at 37° C. Colony forming units were counted at the end of the incubation period with experiments running in triplicate and repeated using blood from five different donors.
# HIV-1 RNA = settings: FIG. 12; PMA stimulated U1 cells
# S. aureus = experiment: Urokinase induced growth of S. aureus; type: cell-based, Staphylococcus aureus; settings: FIG. 2; 10^−6 M peptide; 500 units urokinase, 4 h
# Procedure: (§1) Cultures of S. aureus (ATCC 29213) were obtained from the collection of the Department of Microbiology, Ospedale Maggiore di Milano. […] Cells were then washed in cold distilled water and diluted with HBSS to a concentration of 100 organisms/ml. One-milliliter aliquots were dispensed on blood agar plates and incubated for 24 hours at 37° C. Viability of the microorganisms was estimated from the colonies formed. In another set of experiments, 500 units of urokinase, a S. aureus growth enhancer, were also incubated with the bacteria (10^5/100 ml ) for four hours at 37° C. in a shaking water bath together with the peptides.
# S. aureus (ATCC 29213) = experiment: S. aureus colony formation (viability); type: cell-based, Staphylococcus aureus; settings: FIG. 1; significant at peptide concentrations of 10^−12 to 10^−4 M; 2 h at 37° C.
# Procedure: as §1
# HIV-1 [6] = settings: FIG. 11; 10^−5 M
# Source text: (§2) The chronically HIV-1 infected promonocytic U1 cell line is an in vitro model of latent HIV infection in monocytes. These cells carry two integrated proviral copies of HIV, and constitutive expression of HIV is very low. Viral replication, however, as measured by RNA transcription, p24 antigen, or reverse transcriptase release, can be activated with different stimuli such as TNF-α, IL-6, IL-10, PMA or crowding of cells.
# (§3) Crowding was achieved by seeding U1 cells at a density of 2×10^5/ml and maintaining them in culture at 37° C. in 5% CO2 without changing media for seven days. Cultures activated with cytokines or PMA were maintained for only 48 hours. Supernatants were then removed by centrifugation and assayed for p24 antigen using commercially available ELISA kits from Cellular Products, Inc. in Buffalo, N.Y., USA. Reverse transcriptase releases were also measured using a commercially available kit, ELISA Retrosys RT assay from Innovagen, Lund, Sweden.
# HIV-1 [7] = settings: FIG. 10; broad range of concentrations; TNF-α 10 ng/ml
# Source text: as §2
# Pilot experiments were first performed to determine optimal cell density, stimuli concentration, and kinetics of HIV-1 p24 antigen production using these culture conditions. Before use, cells were washed three times with HBSS to remove extracellular viruses.
# as §3
# C. albicans [8] = experiment: C. albicans germ tube formation induced by horse serum; type: cell-based, Candida albicans; settings: 10^−6 M, 60 minutes at 37° C., germ tubes induced by horse serum
# Procedure: C. albicans from stationary phase cultures were washed twice with distilled water and suspended in HBSS to a final concentration of 2×10^6/ml. Hyphal growth was induced by addition of 10% inactivated horse serum (GIBCO/BRL, Paisley, Great Britain) to yeast incubated for 45 minutes at 37° C. with continuous shaking. […] The percentage of filamentous cells was evaluated under a light microscope with the aid of a hemocytometer. Experiments were run in triplicate and at least 200 cells were scored. Photomicrographs were taken with a MC100 camera attached to an Axioskop Zeiss microscope.
substance,measurement,setting,value
MEHFRWG [alpha-MSH sequence (4-10)],anti-inflammatory activity / general potency,[1],little antipyretic and anti-inflammatory activity
"dideoxyadenosine [ddAdo, reference compound]",effect of ddAdo on alpha-MSH (1-13) and (11-13) inhibition of C. albicans growth,"C. albicans [2]; FIG. 9, ddAdo 25, 50, and 100×10^−5 M for two hours, then peptides two hours",reverse the effect
"9-13 sequence: alpha-MSH 9-13 fragment (WGKPV; Designed polypeptide with anti-inflammatory, anti-microbial, anti-fungal, and anti-viral properties.)",antipyretic potency,[3],almost devoid of activity
"8-13 sequence: alpha-MSH 8-13 fragment (RWGKPV; Designed polypeptide with anti-inflammatory, anti-microbial, anti-fungal, and anti-viral properties.)",antipyretic potency,[3],greater than that of the 11-13 sequence
Lysine-Proline-Valine [alpha-MSH (11-13)],ability of C albicans to form colonies,C. albicans [2],greatly reduced
same,effectiveness against C. albicans compared with fluconazole,C. albicans [2],most effective
same,growth of C. albicans relative to the control group,"C. albicans [2]; FIG. 8, p<0.01",significantly inhibited
same,"NF-κB activation, TNF-α stimulated cells",NF-κB,significantly reduced
same,"NF-κB activation, resting cells",NF-κB,did not alter
same,cAMP content in C. albicans,C. albicans [4],enhanced
same,neutrophil killing of C. albicans,C. albicans [5],enhanced
same,transcription of spliced and unspliced HIV-1 RNA,HIV-1 RNA,inhibited
same,growth enhancing effect of urokinase on S. aureus,S. aureus,significantly countered
same,S. aureus colony formation,S. aureus (ATCC 29213),inhibited
same,"reverse transcriptase release from U1 cells induced by IL-6, IL-10, PMA and in crowding condition",HIV-1 [6],inhibited
SYSMEHFRWGKPV [alpha-MSH (1-13)],ability of C albicans to form colonies,C. albicans [2],greatly reduced
same,effectiveness against C. albicans compared with fluconazole,C. albicans [2],most effective
same,p24 antigen release from TNF-α stimulated U1 cells,HIV-1 [7],significantly inhibited
same,cAMP content in C. albicans,C. albicans [4],enhanced
same,neutrophil killing of C. albicans,C. albicans [5],enhanced
same,reduction in the number of filamentous cells,C. albicans [8],28-32%
same,growth enhancing effect of urokinase on S. aureus,S. aureus,significantly countered
same,S. aureus colony formation,S. aureus (ATCC 29213),inhibited
Ac-[D-K11]-alpha-MSH 11-13-NH2 [reference compound],anti-inflammatory activity / general potency,[1],same general potency
HFRWGKPV (Ac-HFRWGKPV-NH2) [alpha-MSH (6-13)],effectiveness against C. albicans compared with fluconazole,C. albicans [2],most effective
same,reduction in the number of filamentous cells,C. albicans [8],approximately 50%
"10-13 sequence: alpha-MSH (11-13) with glycine added to form the 10-13 sequence (GKPV; Designed pollypeptide with anti-inflammatory, anti-microbial, anti-fungal, and anti-viral properties.)",antipyretic potency,[3],slightly decreased potency
"[Nle^4, D-Phe^7]-alpha-MSH",antipyretic potency,[3],approximately ten times more potent
"ACTH fragment (18-39): ACTH fragment (18-39) (CLIP) (RPVKVYPAGEDDEASEAFPLEF; Designed polypeptide with anti-inflammatory, anti-microbial, anti-fungal, and anti-viral properties.) [reference compound]",C. albicans viability,C. albicans [2],did not reduce
"ACTH (1-39): adrenocorticotropic hormone (1-39) (SYSMEHFRWGKPVGKKRRPVKVYPAGEDDEASEAFPLEF; Designed polypeptide with anti-inflammatory, anti-microbial, anti-fungal, and anti-viral properties/naturally occurring peptide.; listed as Homo sapiens) [reference compound]",C. albicans viability,C. albicans [2],did not reduce
